Measurements as given in patent publication US6617423B1, “Superpotent calcitonin analogs having greatly increased hypocalcemic action in vivo” (Fraunhofer-Gesellschaft zur Forderung der Angewandten …, priority 1997, dated 2003).

System: BALB/c mice
Test: hypocalcemic test in vivo in BALB/c mice
Settings: for biological activity as percentage activity of the hypocalcemic effect maximally achievable in this test: 100% = effect achieved by 2 μg of hCt, BALB/c mice
Description: The biological activity of the analogs was determined by means of a hypocalcemic test in vivo in BALB/c mice.
The biological activity is shown as a percentage [%] activity of the hypocalcemic effect maximally achievable in this test, as is achieved by 2 μg of hCt.

[1] = concentration of the peptides 0.01 ng/ml
[2] = concentration of the peptides 0.1 ng/ml
[3] = concentration of the peptides 1 ng/ml
[4] = concentration of the peptides 10 ng/ml
[5] = relative to hCt, mouse in-vivo test

Substance	biological activity as percentage activity of the hypocalcemic effect maximally achievable in this test [1] [%]	biological activity as percentage activity of the hypocalcemic effect maximally achievable in this test [2] [%]	biological activity as percentage activity of the hypocalcemic effect maximally achievable in this test [3] [%]	biological activity as percentage activity of the hypocalcemic effect maximally achievable in this test [4] [%]	activity above the activity of the human calcitonin [5] [fold]	times more active than the original human calcitonin [5] [times]	times more active than calcitonin from salmon (sCt) (relative to sCt, mouse in-vivo test)
calcitonin from salmon [sCt, reference compound]	21.1	51.6	63.2	–	–	–	–
cyclo^17,21-[Asp^17,Orn^21]-hCt [Cyclo^17,21-[Asp^17, Om^21]-hCt]	36.8	68.4	76.3	86.8	363	360	three
human calcitonin [hCt, reference compound]	–	5.8	15.8	35.2	–	–	–
